Reference: patent US9834550B2, “Pyridopyrimidinone compounds for modulating the catalytic activity of histone lysine demethylases (KDMs)” (Dong-A Socio Holdings Co., Ltd., priority 2014, dated 2017)

What follows are molecules tested against T1, Recombinant human JARID1B/KDM5B (Homo sapiens, UniProt Q9UGL1) (assay: LANCE Ultra TR-FRET demethylase assay with FLAG-tagged JARID1B). Details: 100 nM compound; 500 nM biotinylated H3K4me3 peptide substrate.
T1 construct: purchased Active Motif 31432; host or cells: Sf9 insect cells
Type: biochemical
Outline: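 Sf9-expressed N-FLAG full-length JARID1B (10–30 nM) preincubated 5 min with compound at 20, 1 or 0.1 uM (1% DMSO), then 500 nM biotin-H3K4me3 peptide, 500 uM 2-OG, 25 uM Fe(II), 2 mM ascorbate added; 30 min at room temperature in Hepes pH 7.5. H3K4me2/1 product read by TR-FRET 665/590 ratio.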

T1 sequence (Q9UGL1 whole entry): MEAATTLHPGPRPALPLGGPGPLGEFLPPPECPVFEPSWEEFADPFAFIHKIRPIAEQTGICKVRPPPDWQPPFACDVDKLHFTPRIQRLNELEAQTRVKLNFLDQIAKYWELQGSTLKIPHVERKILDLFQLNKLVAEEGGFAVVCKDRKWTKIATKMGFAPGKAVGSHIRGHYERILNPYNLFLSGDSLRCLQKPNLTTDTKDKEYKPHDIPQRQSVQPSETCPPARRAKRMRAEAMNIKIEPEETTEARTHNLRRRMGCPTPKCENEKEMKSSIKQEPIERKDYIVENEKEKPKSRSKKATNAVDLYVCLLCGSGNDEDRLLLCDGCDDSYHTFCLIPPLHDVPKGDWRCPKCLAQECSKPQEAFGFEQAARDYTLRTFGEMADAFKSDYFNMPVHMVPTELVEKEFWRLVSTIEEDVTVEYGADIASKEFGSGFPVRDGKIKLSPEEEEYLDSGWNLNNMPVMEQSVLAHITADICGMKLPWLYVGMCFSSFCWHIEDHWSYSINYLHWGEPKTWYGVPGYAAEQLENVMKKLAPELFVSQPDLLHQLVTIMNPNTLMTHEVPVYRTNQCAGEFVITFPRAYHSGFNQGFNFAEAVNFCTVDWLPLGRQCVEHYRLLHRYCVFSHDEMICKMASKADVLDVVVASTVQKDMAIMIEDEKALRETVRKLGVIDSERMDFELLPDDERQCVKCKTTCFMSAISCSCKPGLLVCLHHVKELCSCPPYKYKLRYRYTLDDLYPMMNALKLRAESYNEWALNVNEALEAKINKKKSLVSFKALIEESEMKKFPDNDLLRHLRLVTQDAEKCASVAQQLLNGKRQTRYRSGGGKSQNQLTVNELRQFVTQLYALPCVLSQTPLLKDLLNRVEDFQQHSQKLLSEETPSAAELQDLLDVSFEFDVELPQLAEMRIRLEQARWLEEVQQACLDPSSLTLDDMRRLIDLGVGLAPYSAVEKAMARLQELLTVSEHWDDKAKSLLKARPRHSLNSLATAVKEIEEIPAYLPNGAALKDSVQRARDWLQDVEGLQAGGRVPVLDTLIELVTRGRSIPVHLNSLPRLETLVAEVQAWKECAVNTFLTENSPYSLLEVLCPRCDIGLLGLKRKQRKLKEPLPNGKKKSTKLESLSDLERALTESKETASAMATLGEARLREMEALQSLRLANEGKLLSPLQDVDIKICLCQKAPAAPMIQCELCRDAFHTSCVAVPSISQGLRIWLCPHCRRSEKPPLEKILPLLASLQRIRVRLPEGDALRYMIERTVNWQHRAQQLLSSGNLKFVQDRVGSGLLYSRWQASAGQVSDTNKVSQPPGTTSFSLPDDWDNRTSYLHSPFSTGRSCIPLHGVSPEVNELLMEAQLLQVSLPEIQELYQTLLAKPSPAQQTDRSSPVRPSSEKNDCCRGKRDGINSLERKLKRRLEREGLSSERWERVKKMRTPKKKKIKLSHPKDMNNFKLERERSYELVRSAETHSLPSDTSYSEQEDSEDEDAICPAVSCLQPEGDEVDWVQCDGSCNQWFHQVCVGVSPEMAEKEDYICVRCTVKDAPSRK

**Q.** `O=c1[nH]c(C2CCOC2)nc2c(CNCC3CCNCC3)nccc12` (stereo not drawn) [Example 195, 8-(((piperidin-4-ylmethyl)amino)methyl)-2-(tetrahydrofuran-3-yl)pyrido[3,4-d]pyrimidin-4(3H)-one] was tested. Which inhibition at 0.1 µM did it give?
**A.** < 20%

**Q.** How did the inhibition at 0.1 µM turn out when `CNC1CCN(C(=O)CNCc2nccc3c(=O)[nH]c(COc4ccc(F)c(Cl)c4)nc23)C1` (stereo not drawn) [Example 238, 2-((3-chloro-4-fluorophenoxy)methyl)-8-(((2-(3-(methylamino)pyrrolidin-1-yl)-2-oxoethyl)amino)methyl)pyrido[3,4-d]pyrimidin-4(3H)-one] was run?
**A.** > 50%

**Q.** Which inhibition at 0.1 µM does the source give for `O=c1[nH]c(COc2ccc(Cc3ccccc3)cc2)nc2c(CNCC3CCN(Cc4ccccc4)CC3)nccc12` [Example 111, 2-((4-benzylphenoxy)methyl)-8-((((1-benzylpiperidin-4-yl)methyl)amino)methyl)pyrido[3,4-d]pyrimidin-4(3H)-one] here?
**A.** > 50%

**Q.** How did the inhibition at 0.1 µM turn out when `O=c1[nH]c(COc2ccc3c(c2)CCC3)nc2c(CNCC3CCNCC3)nccc12` [Example 139, 2-(((2,3-dihydro-1H-inden-5-yl)oxy)methyl)-8-(((piperidin-4-ylmethyl)amino)methyl)pyrido[3,4-d]pyrimidin-4(3H)-one] was run?
**A.** 20 to 50%

**Q.** For `CN1CCC(CNCc2nccc3c(=O)[nH]c(C4Cc5ccccc5O4)nc23)CC1` (stereo not drawn) [Example 198, 2-(2,3-dihydrobenzofuran-2-yl)-8-((((1-methylpiperidin-4-yl)methyl)amino)methyl)pyrido[3,4-d]pyrimidin-4(3H)-one], which inhibition at 0.1 µM is on record?
**A.** 20 to 50%

**Q.** How did the inhibition at 0.1 µM turn out when `N#Cc1cccc(OCc2nc3c(CNCC4CCNCC4)nccc3c(=O)[nH]2)c1` [Example 138, 3-((4-oxo-8-(((piperidin-4-ylmethyl)amino)methyl)-3,4-dihydropyrido[3,4-d]pyrimidin-2-yl)methoxy)benzonitrile] was run?
**A.** 20 to 50%

**Q.** `CC(Oc1ccc(Cc2ccccc2)cc1)c1nc2c(CNCC3CCN(C)CC3)nccc2c(=O)[nH]1` (stereo not drawn) [Example 211, 2-(1-(4-benzylphenoxy)ethyl)-8-((((1-methylpiperidin-4-yl)methyl)amino)methyl)pyrido[3,4-d]pyrimidin-4(3H)-one] was tested. Which inhibition at 0.1 µM did it give?
**A.** < 20%

**Q.** Which inhibition at 0.1 µM does the source give for `O=c1[nH]c(COc2cc(C(F)(F)F)ccc2Cl)nc2c(CNCC3CCNCC3)nccc12` [Example 112, 2-((2-chloro-5-(trifluoromethyl)phenoxy)methyl)-8-(((piperidin-4-ylmethyl)amino)methyl)pyrido[3,4-d]pyrimidin-4(3H)-one] here?
**A.** 20 to 50%

**Q.** `O=c1[nH]c(COc2ccccc2Br)nc2c(CNCC3CCNCC3)nccc12` [Example 117, 2-((2-bromophenoxy)methyl)-8-(((piperidin-4-ylmethyl)amino)methyl)pyrido[3,4-d]pyrimidin-4(3H)-one] was tested. Which inhibition at 0.1 µM did it give?
**A.** 20 to 50%

**Q.** `CN1CCC(CNCc2nccc3c(=O)[nH]c(C4CCCC4)nc23)CC1` [Example 192, 2-cyclopentyl-8-((((1-methylpiperidin-4-yl)methyl)amino)methyl)pyrido[3,4-d]pyrimidin-4(3H)-one] was tested. Which inhibition at 0.1 µM did it give?
**A.** < 20%

**Q.** With `O=C(CNCc1nccc2c(=O)[nH]c(COc3ccc(F)c(Cl)c3)nc12)NC1CCN(Cc2ccccc2)C1` (stereo not drawn) [Example 232, N-(1-benzylpyrrolidin-3-yl)-2-(((2-((3-chloro-4-fluorophenoxy)methyl)-4-oxo-3,4-dihydropyrido[3,4-d]pyrimidin-8-yl)methyl)amino)acetamide] as the molecule, how does the inhibition at 0.1 µM read?
**A.** > 50%

**Q.** With `CCCCN(CC)C(=O)CNCc1nccc2c(=O)[nH]c(COc3ccc(F)c(Cl)c3)nc12` [Example 222, N-butyl-2-(((2-((3-chloro-4-fluorophenoxy)methyl)-4-oxo-3,4-dihydropyrido[3,4-d]pyrimidin-8-yl)methyl)amino)-N-ethylacetamide] as the molecule, how does the inhibition at 0.1 µM read?
**A.** 20 to 50%

**Q.** With `O=c1[nH]c(COc2ccc(Cc3ccccc3)cc2)nc2c(CNC[C@H]3CCCNC3)nccc12` [Example 153, (S)-2-((4-benzylphenoxy)methyl)-8-(((piperidin-3-ylmethyl)amino)methyl)pyrido[3,4-d]pyrimidin-4(3H)-one] as the molecule, how does the inhibition at 0.1 µM read?
**A.** > 50%

**Q.** `N#Cc1ccccc1OCc1nc2c(CNCC3CCNCC3)nccc2c(=O)[nH]1` [Example 128, 2-((4-oxo-8-(((piperidin-4-ylmethyl)amino)methyl)-3,4-dihydropyrido[3,4-d]pyrimidin-2-yl)methoxy)benzonitrile] was tested. Which inhibition at 0.1 µM did it give?
**A.** 20 to 50%

**Q.** How did the inhibition at 0.1 µM turn out when `Cc1cc(CNCc2nccc3c(=O)[nH]c(COc4ccc(F)c(Cl)c4)nc23)on1` [Example 177, 2-((3-chloro-4-fluorophenoxy)methyl)-8-((((3-methylisoxazol-5-yl)methyl)amino)methyl)pyrido[3,4-d]pyrimidin-4(3H)-one] was run?
**A.** 20 to 50%

**Q.** With `CN1CCC(CNCc2nccc3c(=O)[nH]c(C4Cc5ccccc5C4)nc23)CC1` [Example 201, 2-(2,3-dihydro-1H-inden-2-yl)-8-((((1-methylpiperidin-4-yl)methyl)amino)methyl)pyrido[3,4-d]pyrimidin-4(3H)-one] as the molecule, how does the inhibition at 0.1 µM read?
**A.** < 20%

**Q.** `N[C@H]1CC[C@H](NCc2nccc3c(=O)[nH]c(COc4ccc(Cc5ccccc5)cc4)nc23)CC1` [Example 155, 8-((((1r,4r)-4-aminocyclohexyl)amino)methyl)-2-((4-benzylphenoxy)methyl)pyrido[3,4-d]pyrimidin-4(3H)-one] was tested. Which inhibition at 0.1 µM did it give?
**A.** 20 to 50%

**Q.** With `N[C@H]1CCN(C(=O)CNCc2nccc3c(=O)[nH]c(COc4ccc(F)c(Cl)c4)nc23)C1` [Example 229, (S)-8-(((2-(3-aminopyrrolidin-1-yl)-2-oxoethyl)amino)methyl)-2-((3-chloro-4-fluorophenoxy)methyl)pyrido[3,4-d]pyrimidin-4(3H)-one] as the molecule, how does the inhibition at 0.1 µM read?
**A.** > 50%

**Q.** Which inhibition at 0.1 µM does the source give for `CN1CCC(CNCc2nccc3c(=O)[nH]c(COCc4ccccc4)nc23)CC1` [Example 203, 2-((benzyloxy)methyl)-8-((((1-methylpiperidin-4-yl)methyl)amino)methyl)pyrido[3,4-d]pyrimidin-4(3H)-one] here?
**A.** > 50%

**Q.** For `O=c1[nH]c(COc2ccccn2)nc2c(CNCC3CCNCC3)nccc12` [Example 133, 8-(((piperidin-4-ylmethyl)amino)methyl)-2-((pyridin-2-yloxy)methyl)pyrido[3,4-d]pyrimidin-4(3H)-one], which inhibition at 0.1 µM is on record?
**A.** < 20%

**Q.** How did the inhibition at 0.1 µM turn out when `O=c1[nH]c(COc2ccc(F)c(Cl)c2)nc2c(CNCC3CCN(CCO)CC3)nccc12` [Example 188, 2-((3-chloro-4-fluorophenoxy)methyl)-8-((((1-(2-hydroxyethyl)piperidin-4-yl)methyl)amino)methyl)pyrido[3,4-d]pyrimidin-4(3H)-one] was run?
**A.** > 50%

**Q.** For `O=c1[nH]c(COc2ccc(Cc3ccccc3)cc2)nc2c(CNCC3CNC3)nccc12` [Example 147, 8-(((azetidin-3-ylmethyl)amino)methyl)-2-((4-benzylphenoxy)methyl)pyrido[3,4-d]pyrimidin-4(3H)-one], which inhibition at 0.1 µM is on record?
**A.** > 50%

**Q.** With `O=c1[nH]c(COc2ccc(F)c(Cl)c2)nc2c(CNCC3CCOC3)nccc12` (stereo not drawn) [Example 163, 2-((3-chloro-4-fluorophenoxy)methyl)-8-((((tetrahydrofuran-3-yl)methyl)amino)methyl)pyrido[3,4-d]pyrimidin-4(3H)-one] as the molecule, how does the inhibition at 0.1 µM read?
**A.** < 20%

**Q.** With `O=c1[nH]c(COc2ccc(F)c(Cl)c2)nc2c(CNCC3CCN(C4CCCC4)CC3)nccc12` [Example 169, 2-((3-chloro-4-fluorophenoxy)methyl)-8-((((1-cyclopentylpiperidin-4-yl)methyl)amino)methyl)pyrido[3,4-d]pyrimidin-4(3H)-one] as the molecule, how does the inhibition at 0.1 µM read?
**A.** > 50%
